Test results published in patent US9132191B2, “Compositions and methods of preventing or ameliorating abnormal thrombus formation and cardiovascular disease” (Yale University, priority 2011, dated 2015).

Assays:
[1] = test system: washed platelet; assay: Aggregometry of washed platelets incubated with AR inhibitors (Example 12); assay type: cell-based; details: Homo sapiens, 10 μM inhibitor, 1 hour at 37° C., collagen 1 μg/mL, light transmission 5 min, read-out: % reduction (platelet aggregation, light transmission)
Description: Platelet-poor plasma (PPP) was obtained by centrifugation of the rest of the blood at 1400 g at 25° C. for 10 min. The PRP was adjusted with PPP to 2−3×10^8 platelets/mL suspensions. For the washed platelets, PRP was obtained by centrifugation at 250 g for 15 min, and platelets were sedimented at 1,000 g for 15 min, and then resuspended in washing buffer (103 mmol/L NaCl, 5 mmol/L KCl, 1 mmol/L MgCl2, 5 mmol/L glucose, 36 mmol/L citric acid) at pH 6.5 containing 3.5 mg/mL bovine serum albumin (Sigma). After sedimentation, the platelets were washed twice in this buffer and resuspended at 2−3×10^8 platelets/mL in the buffer composed of 5 mmol/L HEPES, 137 mmol/L NaCl, 2 mmol/L KCl, 1 mmol/L MgCl2, 12 mmol/L NaHCO3, 0.3 mmol/L NaH2PO4, 5.5 mmol/L glucose, pH 7.4, containing 3.5 mg/mL BSA (Saxena et al., 1989, Science 243:1596-1599).
Washed platelet (1×10^8) were incubated with AR inhibitors for 1 hour at 37° C. For aggregometry studies, 0.5 μL of collagen solution (with a final concentration of 1 μg/mL) was added into 500 μL of washed platelet, and then the light transmission was measured for 5 min. […] The percentage of platelet aggregation, as measured in terms of light transmission, is summarized in FIG. 17, and representative tracings are depicted in FIG. 18.

[2] = test system: human platelets; assay: Collagen-induced platelet aggregation (light transmission, Lumi-aggregometer); assay type: cell-based; details: NG or HG 90 min; 1 μg/mL collagen; SB239063 50 μmol/L, U73122 5 μmol/L, quercetin 10 μmol/L, SQ29548 10 μmol/L, NAC, apocynin 100 μmol/L
Description: Venous blood was drawn from volunteers at Yale University Medical School, free from medication known to interfere with platelet function. […] PRP was obtained by centrifugation of blood at 250 g at 37° C. for 15 min and the platelet count in the PRP was estimated by an automated cell counter.
Platelet-poor plasma (PPP) was obtained by centrifugation of the rest of the blood at 1400 g at 25° C. for 10 min. The PRP was adjusted with PPP to 2−3×10^8 platelets/mL suspensions.
Platelet aggregation was monitored at 37° C. with constant stirring (1,200 rpm) in a dual-channel Lumi-aggregometer (Chrono-Log model 700). Platelet aggregation was measured as the increase in light transmission for 10 min, starting with the addition of 0.5 μL of 1 mg/mL collagen (Chrono-Log) as a proaggregatory stimulus. For measuring ADP-stimulated platelet aggregation, 1 μM ADP (Chrono-Log) was used. The maximum aggregation was expressed as percentage of maximum light transmission, with non-stimulated platelet-rich plasma being 0% and platelet-poor plasma 100%.

[3] = test system: p38α MAPK; assay: p38α MAPK phosphorylation in collagen-stimulated platelets (phospho-kinase array, Western blot); assay type: cell-based, human; details: NG and HG; 1 μg/mL collagen 10 min; epalrestat 10 μmol/L, U73122, NAC 1 mmol/L, quercetin 10 μmol/L
Description: Platelets were homogenized in the lysis buffer (25 mmol/L Tris HCl, pH 7.6, 150 mmol/L NaCl, 1% NP-40, 1% sodium deoxycholate, 0.1% SDS) with the addition of 0.1% protease inhibitor and 0.1% phosphatase inhibitor (Thermo Scientific). The supernatant was collected after centrifugation at 13,000 rpm for 15 min at 4° C. The samples are loaded in 4×SDS-Laemmli sample buffers and boiled for 10 min. Equal amounts of total extracts were subjected to SDS-PAGE. The proteins were transferred to nitrocellulose membrane and probed with the indicated antibodies, and the antigen-antibody complex was detected by enhanced chemiluminescence reagents (Thermo Scientific).
(§1) Primary antibodies against the following proteins were diluted and used according to the manufacturer's instructions: AR (sc-17732, Santa Cruz Biotechnology), PKC α (sc-208, Santa Cruz Biotechnology) and its phosphorylated form (sc-136018, Thr638, Santa Cruz Biotechnology), PKC βII (NB110-57358, Novus Biologicals) and its phosphorylated form (NSB964, Thr641, Novus Biologicals), PKC δ (2058, Cell Signaling) and its phosphorylated form (9376, Ser643, Cell Signaling), PLC-γ1 (H00005335-A01, Novus Biologicals) and its phosphorylated form (07866, Tyr783, Millipore), PLC-γ2 (NB110-66669, Novus Biologicals) and its phosphorylated form (NB110-57424, Tyr1217, Novus Biologicals), p38α MAPK (9212, Cell Signaling) and its phosphorylated form (AF869, T180/Y182, R&D Systems), and TX receptor (NBP1-40198, Novus Biologicals). Secondary antibodies against rabbit and mouse IgG (Thermo Scientific) were diluted 1:5000 before use. The membrane was re-probed with antibodies against Na^+/K^+-ATPase (NB300-147, Novus Biologicals), a plasma membrane marker, and GAPDH (sc-20357, Santa Cruz Biotechnology), a cytoplasmic marker, for normalization.
The human phospho-kinase array was performed according to the manufacturer's instruction (R&D Systems). […] The signals for the amount of phosphorylated proteins bound were measured by the chemiluminescent detection method.

[4] = test system: human platelets; assay: Thromboxane biosynthesis (TXB2 EIA in platelet supernatant); assay type: cell-based; details: NG or HG; 1 μg/mL collagen; U73122 5 μmol/L, SB239063 50 μmol/L, SQ29548 10 μmol/L
Description: Platelets were sedimented by centrifugation at 2,500 g for 5 min, and the supernatant was harvested for the measurement of TX levels. Since TXA2 is rapidly hydrolyzed into TXB2, the level of TXB2 was measured using TXB2 EIA kit according to the manufacturer's ELISA instructions (Cayman Chemical).

[5] = target: T1, platelet COX-1 (Homo sapiens, UniProt P23219); assay: Residual serum TXB2 generation in clotted whole blood (index of platelet COX-1 activity); assay type: cell-based
T1 construct: in whole blood allowed to clot for 1 h at 37° C; (serum TXB2) which is an index of maximal capacity of platelets; endogenous in cells; host or cells: platelets in whole blood of diabetic patients and healthy subjects
Description: Patients with the presence of type 2 diabetes (n=102) were recruited from the Hospital Policlinico G.B. Rossi (Verona, Italy) and San Pio da Pietrelcina Hospital (Vasto, Italy). Exclusion criteria included concurrent cancer, inflammatory disorder, immunological disorder, surgery or major trauma in the previous month or use of nonsteroidal anti-inflammatory drugs (NSAIDs) or corticosteroids in the previous month. Both the diabetic population and the severe cardiovascular disease population were chronically treated with low dose aspirin for at least one month (enteric coated aspirin 100 mg for at least 7 consecutive days). After recruitment the patients received a standard oral dose of 100 mg for seven days at 8.00 pm. […] The 10 healthy subjects recruited were from the staff of Hospital Policlinico G.B. Rossi (Verona Italy) with normal ECG and echocardiograms and no evidence of atherosclerosis by carotid artery sonography. The healthy subjects were all treated with aspirin 100 mg daily for 1 week.
(serum TXB2) which is an index of maximal capacity of platelets to generate TXB2.
In order to verify whether in these patients higher generation of platelet TXB2 was due to the phenomenon of aspirin resistance which implies that the aspirin target, i.e., COX-1, is less sensitive to inactivation by aspirin, residual generation of TXB2 was assessed after adding aspirin (50 μg/mL) in vitro.

[6] = target: aldose reductase (Homo sapiens, UniProt P15121); details: aldose reductase inhibitor IC50; no method given; cited from earlier work
[7] = test system: thromboxane receptor (TP); assay: Surface expression of thromboxane receptor in collagen-stimulated platelets; assay type: cell-based, human; details: HG; 1 μg/mL collagen; epalrestat 10 μmol/L, NAC, apocynin
Description: as §1
Platelets were sedimented by centrifugation at 2,500 g for 5 min. The membrane and cytosolic fractions of total extracts were separated using the subcellular protein fractionation kit (Thermo Scientific). […]

[8] = test system: human platelets; assay: Oxidative stress and superoxide level in collagen-stimulated platelets; assay type: cell-based; details: NG and HG, epalrestat 10 μmol/L, 10 mmol/L NAC, 100 μmol/L apocynin
Description: The oxidative stress and superoxide level was measured by a commercial kit according to the manufacturer's instruction (Total ROS/Superoxide Detection Kit, Enzo Life Sciences). Platelets were sedimented by centrifugation at 400 g for 5 min, and then washed. The washed platelets were incubated with 1 μmol/L ROS/Superoxide detection mix for 60 min at 37° C. in the presence or absence of 1 μg/mL collagen.

T1 sequence (P23219 24-599): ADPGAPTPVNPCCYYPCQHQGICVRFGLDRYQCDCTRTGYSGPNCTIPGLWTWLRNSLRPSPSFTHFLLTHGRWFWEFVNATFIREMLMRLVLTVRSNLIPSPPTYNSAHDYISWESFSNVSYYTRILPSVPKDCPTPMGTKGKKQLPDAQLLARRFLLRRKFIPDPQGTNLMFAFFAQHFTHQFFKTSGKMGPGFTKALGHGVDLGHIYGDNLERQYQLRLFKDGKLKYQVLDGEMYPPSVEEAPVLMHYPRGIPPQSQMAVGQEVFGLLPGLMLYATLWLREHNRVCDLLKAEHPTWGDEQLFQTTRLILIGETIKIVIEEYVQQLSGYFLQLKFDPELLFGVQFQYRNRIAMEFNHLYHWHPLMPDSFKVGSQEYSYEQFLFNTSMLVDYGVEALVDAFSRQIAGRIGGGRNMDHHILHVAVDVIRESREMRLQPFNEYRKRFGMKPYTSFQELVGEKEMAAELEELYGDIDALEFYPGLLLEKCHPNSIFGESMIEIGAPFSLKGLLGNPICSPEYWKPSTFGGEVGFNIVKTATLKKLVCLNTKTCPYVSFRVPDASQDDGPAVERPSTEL

SMILES: O=C(O)Cn1cc(Cc2nc3c(F)c(F)cc(F)c3s2)c2ccccc21 [IDD 676, [3-(4,5,7-Trifluorobenzothiazol-2-ylmethyl)indol-1-yl]acetic acid]
- inhibition at 10 µM [1]: 54%

SMILES: COc1ccc2c(c1)CC[C@@H]1[C@@H]2CC[C@]2(C)[C@@H](NCCCCCCN3C(=O)C=CC3=O)CC[C@@H]12 [U73122]
- collagen-induced platelet aggregation (signalling inhibitors) [2]: reduced platelet aggregation
- collagen-induced phosphorylation of p38α MAPK (Western blot) [3]: significantly reduced
- collagen-induced TXB2 (TXA2) release (signalling inhibitors) [4]: attenuated the collagen-induced TXB2 release

SMILES: CC(=O)Oc1ccccc1C(=O)O [aspirin, Acetylsalicylic Acid]
- diabetic patients with residual TXB2 levels higher than 4 ng/mL with aspirin in vitro ([5]; aspirin 50 μg/mL added in vitro): 2%
- residual TXB2 generation after adding aspirin in vitro ([5]; aspirin 50 μg/mL in vitro, diabetic patients and healthy subjects on aspirin 100 mg/day, blood clotted 1 h at 37° C.): further significant reduction
- diabetic patients with residual serum TXB2 higher than 4 ng/mL ([5]; ex vivo, 12 h after the last dose of aspirin 100 mg/day): 12%

SMILES: O=C(O)CCC/C=C\C[C@@H]1[C@H](CNNC(=O)Nc2ccccc2)[C@H]2CC[C@@H]1O2 [SQ29548, 1S-[1-alpha,2-beta-(5Z),3-beta,4-alpha]-7-[3-[[2-[(phenylamino)carbonyl]hydrazino]methyl]-7-oxabicyclo[2.2.1]hept-2-yl]-5-heptenoic acid]
- collagen-induced platelet aggregation (signalling inhibitors) [2]: attenuated the collagen-induced platelet aggregation
- collagen-induced TXB2 (TXA2) release (signalling inhibitors) [4]: attenuated collagen-induced TXA2 release

SMILES: COc1nccc(-c2c(-c3ccc(F)cc3)ncn2[C@H]2CC[C@H](O)CC2)n1 [SB239063, trans-4-[4-(4-fluorophenyl)-5-(2-methoxy-4-pyrimidinyl)-1H-imidazol-1-yl]cyclohexanol]
- collagen-induced platelet aggregation (signalling inhibitors) [2]: reduced platelet aggregation
- collagen-induced TXB2 (TXA2) release (signalling inhibitors) [4]: attenuated the collagen-induced TXB2 release

SMILES: CCCCCOc1ccc(C2SC(=O)NC2=O)cc1OCC (centres unmarked) [IDD 73, 5-[3-Ethoxy-4-(pentyloxy)phenyl]-2,4-thiazolidinedione]
- IC50 [6]: 0.294 µM
- inhibition at 10 µM [1]: 54%

SMILES: O=C1NC(=O)[C@@]2(CCOc3ccc(F)cc32)N1 [IDD 60, (4S)-6-Fluoro-2,3-dihydro-2′H,5′H-spiro[chromene-4,4′-imidazolidine]-2′,5′-dione]
- inhibition at 10 µM [1]: 67%

SMILES: O=C1CC2(C(=O)N1)C(=O)N(Cc1ccc(Br)cc1F)C(=O)c1ccc(F)cc12 (racemic) [IDD 62, (±)-2-(4-Bromo-2-fluorobenzyl)-6-fluorospiro[1,2,3,4-tetrahydroisoquinoline-4,3′-pyrrolidine]-1,2′,3,5′-tetraone]
- inhibition at 10 µM [1]: 59%

SMILES: O=C(O)Cc1nn(Cc2nc3cc(C(F)(F)F)ccc3s2)c(=O)c2ccccc12 [IDD 65, 3,4-Dihydro-4-oxo-3-[[5-(trifluoromethyl)-2-benzothiazolyl]methyl]-1-phthalazineacetic acid]
- inhibition at 10 µM [1]: 50%

SMILES: O=c1c(O)c(-c2ccc(O)c(O)c2)oc2cc(O)cc(O)c12 [quercetin]
- collagen-induced platelet aggregation (signalling inhibitors) [2]: reduced platelet aggregation
- collagen-induced phosphorylation of p38α MAPK (Western blot) [3]: attenuated

SMILES: COc1ccc2c(C(=S)N(C)CC(=O)O)cccc2c1C(F)(F)F [IDD 63, N-{[6-methoxy-5-(trifluoromethyl)-1-naphthyl]carbothioyl}-N-methylglycine]
- inhibition at 10 µM [1]: 78%

SMILES: COc1cc(C(C)=O)ccc1O [apocynin]
- collagen-induced platelet aggregation (signalling inhibitors) [2]: attenuated the collagen-induced platelet aggregation to a similar extent as ARI
- surface expression of TX receptor (TP) [7]: significantly attenuated
- level of oxidative stress and superoxide [8]: significantly reduced

SMILES: O=C(O)CN1C(=O)C(=O)N(Cc2cccc([N+](=O)[O-])c2)C1=O [IDD 314, 3-(3-nitrobenzyl)-2,4,5-trioxoimidazolidine-1-acetic acid]
- IC50 [6]: 0.718 µM
- inhibition at 10 µM [1]: 52%

SMILES: CC(=O)N[C@@H](CS)C(=O)O [NAC, N-acetyl-cysteine]
- collagen-induced platelet aggregation (signalling inhibitors) [2]: attenuated the collagen-induced platelet aggregation to a similar extent as ARI
- collagen-induced phosphorylation of p38α MAPK (Western blot) [3]: significantly reduced
- surface expression of TX receptor (TP) [7]: significantly attenuated
- level of oxidative stress and superoxide [8]: significantly reduced

SMILES: O=C(O)Cn1c(=O)n(Cc2ccc(Br)cc2F)c(=O)c2ccc(Cl)cc21 [IDD 148, 3-(2-Fluoro-4-bromobenzyl)-7-chloro-2,4(1H,3H)-dioxoquinazoline-1-acetic acid]
- inhibition at 10 µM [1]: 61%
